According to patent US10604513B2, “Pyridone derivative comprising heteroatomic ring butane substituent, for treating fibrosis and inflammatory diseases” (SHIJIAZHUANG SAGACITY NEW DRUG DEVELOPMENT CO., LTD., priority 2016, dated 2020):

What was measured:
[1] = tested on: endotoxin (LPS)-induced TNF-α in rat blood; assay: Effect of compounds on endotoxin (LPS)-induced TNF-α in rat blood in vitro; type: cell-based, Sprague Dawley rats; conditions: for inhibition of TNF-α level induced by LPS (in words): compared with Pirfenidone; for inhibition at 100 µM: tested concentration of compound 0.1 mM; for inhibition at 100 µM / inhibition at 500 µM: LPS 100 μg/mL, rat blood, 5 h; for inhibition at 500 µM: tested concentration of compound 0.5 Mm (footnote *)
Method: Main task: evaluation on effect of compounds on endotoxin (LPS)-induced TNF-α in rat blood in vitro
Experimental purpose: testing effect of compounds on endotoxin (LPS)-induced TNF-α in rat blood in vitro, and evaluate effect of compounds on endotoxin (LPS)-induced TNF-α in rat blood in vitro
Sprague Dawley rats (male, 210-260 g, Shanghai Slac Laboratory Animal CO. LTD) Rat TNF-alpha Quantikine ELISA Kit (R&D, #SRTA00)
A solution of the compound was prepared (5 mM or 1 mM), 40 μL was added into a 48-well cell culture plate, respectively (the final concentration was 0.5 or 0.1 mM). The rats were hocussed with isoflurane and blood was collected from the abdominal aorta (Heparin anticoagulant). The blood was added into a 48-well cell culture plate (320 μL per well) containing the compounds to be tested. And then the 48-well cell culture plate was incubated at 37° C. After 30 min, the plate was added with 40 μL LPS (the final concentration was 100 μg/mL), and then were incubated at 37° C. after mixed. After 5 h, the 48-well plate was taken out and the blood was transferred into 1.5 mL centrifuge tubes and centrifuged in the centrifugal machine (4,500 rpm, 4° C., 5 min). The upper plasma was separated and kept portions (20 μL per well) into 96-well sample plate, and then sharp-frozen and preserved at refrigerator (−80° C.). The second day, the TNF-α level on the blood samples was tested by using R&D ELISA kits according to the kit specification. The data was analyzed by EXCEL and Prism.

[2] = tested on: SD rat pulmonary fibrosis induced by Bleomycin; assay: Efficacy trial in vivo: SD rat pulmonary fibrosis induced by Bleomycin; conditions: for improving tissue damage in the area and margin of pulmonary fibrosis lesions: doses per Table 5, FIGS. 1-4; for efficacy compared with the reference compound Pirfenidone: oral, 14 days
Source text: Experimental purpose: test preventive therapeutic effects of compounds on SD rat pulmonary fibrosis induced by Bleomycin
Model: SD rat pulmonary fibrosis on the left lung; pulmonary fibrosis modelled by injecting Bleomycin into rat trachea
Molding agent: Bleomycin (BLM)
1 ? experimental grouping: efficacy trial for twice, besides common modeling group and Pirfenidone group as control reference, tested compounds were divided into […], i.e. model group (Group -1, n=7, Vehicle), control reference drug (group-2, n=7, Pirfenidone); tested compound WX001 group (Group-3, n=7), tested compound WX002 high dosage group (Group-4, n=7), tested compound WX002 low dosage group (Group-5, n=7) (Table 5)
2 ? Drug administration: Orally administering on the day the model was established, twice a day and administration for 14 day continuously 3 ? Physiological observation of experimental animal: detecting changes in animal weight (test weight before administration every day); detecting animal death rate during test period 4 ? euthanasia of animal after 14 days, formalin was injected into left lung to fix, and test volume and weight of left lung after injection and then test Lung Pathology (Table 6)
Test Results of Experiment: Test of tissue pathology of left lung: pathological evaluation of H&E dye: 1) pathological changes of left lung terminal bronchiole, 2) pathological changes of left lung pulmonary arteriole; pathological evaluation of Masson Thrichrome dye: 3) area of left lung pulmonary fibrosis, 4) score of left lung pulmonary fibrosis.

| SMILES | inhibition of TNF-α level induced by LPS (in words) ([1]; 0.1 mM as final concentration) | inhibition at 100 µM [1] | inhibition at 500 µM [1] | other results |
| --- | --- | --- | --- | --- |
| O=c1ccc(C2(F)COC2)cn1-c1ccsc1 [WX011] | significant inhibition | 78.8% | – | – |
| O=c1ccc(C2(O)COC2)cn1-c1ccsc1 [WX009] | – | – | 51.5% | – |
| Cc1cc(-n2cc(C3(C)COC3)ccc2=O)cs1 [WX004] | significant inhibition | 89.5% | – | – |
| CC1(c2ccc(=O)n(-c3ccccc3)c2)COC1 [WX001] | – | – | 86.3% | improving tissue damage in the area and margin of pulmonary fibrosis lesions ([2]; oral twice a day for 14 days): good effect; inhibition of TNF-α level induced by LPS (in words) ([1]; 0.5 mM): significant inhibition |
| CC1(c2ccc(=O)n(-c3ccsc3)c2)COC1 [WX002] | significant inhibition | 74.6% | – | efficacy compared with the reference compound Pirfenidone ([2]; low dose of 50 mpk group): better efficacy than Pirfenidone; preventing the formation of pulmonary fibrosis ([2]; oral twice a day for 14 days, FIG. 5): good effect; improving tissue damage in the area and margin of pulmonary fibrosis lesions ([2]; oral twice a day for 14 days): good effect; efficacy compared with the reference compound Pirfenidone ([2]; same dose of 100 mpk group): better efficacy than Pirfenidone |
| CC1(c2ccc(=O)n(-c3cscn3)c2)COC1 [WX005] | – | 61.6% | – | – |
| CC1(c2ccc(=O)n(-c3csc(Cl)c3)c2)COC1 [WX003] | significant inhibition | 84.7% | – | – |
| Cc1ccc(=O)n(-c2ccccc2)c1 [Pirfenidone, reference compound] | – | – | 51.4% | – |
